SMILES strings stand for the structures. Active and inactive are the calls of the source. The calls are words filed in the database; no cut-off is given here.

This passage reports IC50, Activity and inhibition results from ChEMBL document CHEMBL5532671, “Leucosceptrane Sesterterpenoids as a New Type of Natural Immunosuppressive Agents in Treating Sepsis” (J Med Chem, 2024).

The test system of data set [1] is T-cell. Kind of data set: Immunosuppressive activity in C57BL/6 female mouse T-cells isolated from spleen assessed as inhibition of LPS-induced IFN-gamma secretion treated for 48 hrs by ELISA based assay. The format is functional. The settings on record: C57BL/6, T-cell.
Data set [2] has as its system T-cell. Briefly: Blocked of cell cycle progression in anti-CD3/CD28 stimulated C57BL/6 female mouse T-cells isolated from spleen assessed as decrease in cells at S phase measured after 48 hrs by flow cytometry assay. The class given is functional, cell-based. The settings on record: dose 5-20 µM. (In general: Flow cytometry measures light scatter and fluorescence of single cells or particles in a stream.)

Data set [3] relates to RAW264.7. Briefly: Inhibition of cytokine secretion in mouse RAW264.7 cells assessed as suppression of LPS-induced IL-6 secretion measured after 48 hrs by ELISA based assay. The class given is functional, cell-based. The settings on record: dose 2.5-40 µM.
Data set [4] concerns RAW264.7. Briefly: Inhibition of cytokine secretion in mouse RAW264.7 cells assessed as suppression of LPS-induced TNF-alpha secretion measured after 48 hrs by ELISA based assay. The format is functional, cell-based. Particulars: dose 2.5-40 µM. (In general: In an ELISA, binding on a coated surface is turned into a signal by an enzyme label.)
Data set [5] has as its system RAW264.7. Briefly: Immunosuppressive activity in mouse RAW264.7 cells assessed as reduction in expression of ERK phosphorylation at 10 to 40 uM by Western blot analysis. The class given is functional, cell-based. Particulars: dose 10-40 µM. A general note: Immunoblotting shows a protein as a band on a membrane.
For data set [6], the system named is RAW264.7. Briefly: Antiproliferative activity against mouse RAW264.7 cells at 2.5 to 40 uM. The class given is toxicity, cell-based. Particulars: raw264.7, 40 µM, dose 2.5-40 µM.
The subject of data set [7] is T-cell. Briefly: Inhibition of proliferation of C57BL/6 female mouse T-cells isolated from spleen at 20 uM relative to control. Particulars: C57BL/6, T-cell. The class given is functional.
Data set [8] concerns T-cell. Briefly: Blocked of cell cycle progression in anti-CD3/CD28 stimulated C57BL/6 female mouse T-cells isolated from spleen assessed as increase in cells at G2/M phase measured after 48 hrs by flow cytometry assay. The class given is functional, cell-based. Particulars: dose 5-20 µM.
Data set [9] concerns T-cell. Kind of data set: Blocked of cell cycle progression in anti-CD3/CD28 stimulated C57BL/6 female mouse T-cells isolated from spleen assessed as increase in cells at G0/G1 phase at 5 to 20 uM measured after 48 hrs by flow cytometry assay. The class given is functional, cell-based. Particulars: dose 5-20 µM.
The subject of data set [10] is RAW264.7. Briefly: Immunosuppressive activity in mouse RAW264.7 cells assessed as reduction in expression of P70S6K phosphorylation at 10 to 40 uM by Western blot analysis. The class given is functional, cell-based. The settings on record: dose 10-40 µM.
The species entered for data set [11] is Mus musculus. Briefly: Immunosuppressive activity in C57BL/6 female mouse T Cells isolated from spleen assessed as inhibition of anti-CD3/CD28-induced IFN-gamma secretion measured after 48 hrs by ELISA based assay relative to control. The format is functional. The settings on record: T-cell.
The subject of data set [12] is RAW264.7. Kind of data set: Immunosuppressive activity in mouse RAW264.7 cells assessed as reduction in expression of JNK phosphorylation at 10 to 40 uM by Western blot analysis. The format is functional, cell-based. The settings on record: dose 10-40 µM.
Data set [13] has as its system T-cell. Kind of data set: Immunosuppressive activity in C57BL/6 female mouse T-cells isolated from spleen assessed as inhibition of LPS-induced IFN-gamma secretion at 20 uM treated for 48 hrs by ELISA based assay relative to control. The class given is functional. Particulars: C57BL/6, T-cell.
The test system of data set [14] is T-cell. Kind of data set: Inhibition of proliferation of C57BL/6 female mouse T-cells isolated from spleen. The class given is functional, cell-based. The settings on record: C57BL/6, T-cell.
Data set [15] deals with RAW264.7. Briefly: Inhibition of cytokine secretion in mouse RAW264.7 cells assessed as suppression of LPS-induced TNF-alpha at 40 uM secretion measured after 48 hrs by ELISA based assay. The format is functional, cell-based.
The subject of data set [16] is Mus musculus. Briefly: Antisepsis against LPS-induced sepsis mouse multiorgan damage model model assessed as reduction in multiorgan damage at 25 to 50 mg/kg, IG measured after 24 hrs by H and E staining assay. The format is functional, organism-based. Particulars: dose 25-50 mg/kg.
Data set [17] deals with Mus musculus. Kind of data set: Reduction in IL-6 level in LPS-induced sepsis mouse model peripheral blood at 50 mg/kg, IG measured after 12 hrs by ELISA based assay. The class given is functional, organism-based.
Data set [18] is filed under the species Mus musculus. Kind of data set: Antisepsis against LPS-induced sepsis mouse model assessed as increase in survival rate of mouse treated IG measured upto 24 hrs. The class given is functional, organism-based.
The test system of data set [19] is Mus musculus. Kind of data set: Reduction in TNF-alpha level in LPS-induced sepsis mouse model peripheral blood at 25 mg/kg, IG measured after 12 hrs by ELISA based assay. The format is functional, organism-based.
In data set [20] the test system is RAW264.7. Briefly: Inhibition of cytokine secretion in mouse RAW264.7 cells assessed as suppression of LPS-induced IL-6 secretion at 40 uM measured after 48 hrs by ELISA based assay. The class given is functional, cell-based.
The subject of data set [21] is T-cell. Briefly: Immunosuppressive activity in C57BL/6 female mouse T-cells isolated from spleen assessed as inhibition of LPS-induced IFN-gamma secretion at 1 uM treated for 48 hrs by ELISA based assay relative to control. The format is functional. The settings on record: C57BL/6, T-cell.
The subject of data set [22] is T-cell. Briefly: Inhibition of proliferation of C57BL/6 female mouse T-cells isolated from spleen at 1 uM relative to control. The format is functional. Particulars: C57BL/6, T-cell.

A word on the IC50: it is the midpoint of a concentration-inhibition curve. As a reminder, the inhibition is the relative decrease from the control value, in per cent. Consider `CC(C)=C[C@H]1O[C@@](C)(CCc2occc2C)C2=C1[C@@H](C)[C@@H]1CC[C@H](C)[C@]1(O)C2=O`, for which the IC50 with T-cell [1] was found to be 4.94 µM; in the data set with T-cell [14], 32.5 µM. Besides, the results for the Activity result in the data set on T-cell [2], in the data set on RAW264.7 [6] and in the data set with T-cell [8] were “Dose-Dependent Effect”, “Non-Toxic” and “Dose-Dependent Effect”, respectively. Also, the inhibition result in the data set with RAW264.7 [3] and in the data set on RAW264.7 [4] was “Dose-Dependent Effect” in each case. For the same compound, the outcome in the data set on RAW264.7 [5], in the data set with T-cell [9], with RAW264.7 [10], in the data set listed under Mus musculus [11] and in the data set with RAW264.7 [12] was Active. Further, the results for the inhibition at 20 µM in the data set with T-cell [7] and in the data set with T-cell [13] were 39.8% and 73.7%, respectively.

Turning to `CC(C)=CC1O[C@@]2(C)CC[C@]3(OC(=O)C=C3C)O[C@]13[C@H]2C(=O)[C@H]1[C@@H](CC[C@@H]1C)[C@@H]3C` (some centres undefined), the values for the IC50 with T-cell [1] and in the data set on T-cell [14] were 12.6 µM and 25.8 µM, respectively. Also, the inhibition at 20 µM in the data set on T-cell [7] came to 51.5%; in the data set on T-cell [13], 69.4%.

As for `CC(C)=CC(=O)[C@@]1(O)[C@@H](C)[C@@H]2CC[C@H](C)[C@H]2C(=O)[C@]1(O)[C@H](C)CC[C@@H]1OC(=O)C=C1C`, the 50% inhibitory concentration (IC50) with T-cell [1] was 9.94 µM. Also, the inhibition entry with RAW264.7 [15] and with RAW264.7 [20] was “Active” each time. Besides, the result with RAW264.7 [5], in the data set on Mus musculus [16], in the data set with Mus musculus [17], with Mus musculus [19], in the data set with RAW264.7 [10] and in the data set filed under Mus musculus [11] was Active. Moreover, the Activity result was “Non-Toxic” with RAW264.7 [6] and “Dose-Dependent Effect” in the data set filed under Mus musculus [18]. The inhibition at 20 µM in the data set with T-cell [7] was 14.7%; in the data set on T-cell [13], 54.3%.

Turning to `CC(C)=C[C@H]1O[C@@](C)(C/C=C2\NC(=O)C=C2C)[C@@H]2C(=O)[C@@H]3[C@@H](CC[C@@H]3C)[C@H](C)[C@@]21O`, the IC50 in the data set on T-cell [1] worked out at 19.6 µM. Also, the figures for the inhibition at 20 µM in the data set on T-cell [7] and in the data set with T-cell [13] were 13.8% and 56.4%, respectively.

For `C/C=C/C[C@@H](C)[C@@H](O)[C@H]1C(=O)N[C@@H](CC)C(=O)N(C)CC(=O)N(C)[C@@H](CC(C)C)C(=O)N[C@@H](C(C)C)C(=O)N(C)[C@@H](CC(C)C)C(=O)N[C@@H](C)C(=O)N[C@H](C)C(=O)N(C)[C@@H](CC(C)C)C(=O)N(C)[C@@H](CC(C)C)C(=O)N(C)[C@@H](C(C)C)C(=O)N1C` [CYCLOSPORINE], the values for the inhibition at 1 µM in the data set with T-cell [21] and with T-cell [22] were 99.2% and 36.7%, respectively.

As for `CC(C)=CC(=O)[C@@]1(O)[C@@H](C)[C@@H]2CC[C@H](C)[C@H]2C(=O)[C@]1(O)[C@H](C)CCc1occc1C`, in the data set on T-cell [1], the IC50 was 5.59 µM. Further, the inhibition at 20 µM in the data set with T-cell [7] worked out at 27.9%; in the data set on T-cell [13] it was 73.6%.
